Consider two compounds from ChEMBL document CHEMBL1129592 (J Med Chem, 1996).

Assay [1] deals with T1, 5-hydroxytryptamine receptor 1A (Rattus norvegicus, UniProt P19327).
T1 sequence (P19327 whole entry): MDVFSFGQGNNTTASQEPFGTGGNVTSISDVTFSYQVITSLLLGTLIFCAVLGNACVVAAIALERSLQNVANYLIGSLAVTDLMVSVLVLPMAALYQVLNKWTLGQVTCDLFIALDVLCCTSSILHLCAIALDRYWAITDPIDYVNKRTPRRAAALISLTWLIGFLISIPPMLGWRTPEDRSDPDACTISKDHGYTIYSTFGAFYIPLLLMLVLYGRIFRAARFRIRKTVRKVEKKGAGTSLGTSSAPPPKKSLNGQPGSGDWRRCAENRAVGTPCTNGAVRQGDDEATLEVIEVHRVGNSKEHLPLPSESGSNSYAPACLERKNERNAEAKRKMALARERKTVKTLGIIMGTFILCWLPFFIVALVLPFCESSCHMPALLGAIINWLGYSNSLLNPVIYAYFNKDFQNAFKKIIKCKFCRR
In words: Binding affinity towards rat 5-hydroxytryptamine 1A receptor was evaluated using [3H]8-OH-DPAT as radioligand.

The target of assay [2] is 5-hydroxytryptamine receptor 2A (Rattus norvegicus, UniProt P14842). In words: Binding affinity towards rat 5-hydroxytryptamine 2A receptor was evaluated using [3H]- ketanserin as radioligand.
For assay [3], the target named is T2, Adrenergic receptor alpha-2 (Rattus norvegicus, UniProt P22086+P19328+P22909).
T2 sequence (P22086 whole entry): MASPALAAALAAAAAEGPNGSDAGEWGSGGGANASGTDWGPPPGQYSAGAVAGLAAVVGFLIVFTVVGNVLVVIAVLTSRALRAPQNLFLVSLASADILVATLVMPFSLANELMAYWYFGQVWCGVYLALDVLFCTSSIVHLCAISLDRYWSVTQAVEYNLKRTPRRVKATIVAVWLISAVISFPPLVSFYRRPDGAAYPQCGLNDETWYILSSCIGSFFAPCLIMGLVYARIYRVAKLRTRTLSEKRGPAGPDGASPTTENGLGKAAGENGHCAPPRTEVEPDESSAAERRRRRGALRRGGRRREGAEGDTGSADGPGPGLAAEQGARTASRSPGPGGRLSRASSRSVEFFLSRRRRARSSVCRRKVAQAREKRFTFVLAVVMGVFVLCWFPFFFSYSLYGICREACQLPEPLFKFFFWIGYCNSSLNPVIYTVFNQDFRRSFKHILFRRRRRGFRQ
T2 sequence (P19328 whole entry): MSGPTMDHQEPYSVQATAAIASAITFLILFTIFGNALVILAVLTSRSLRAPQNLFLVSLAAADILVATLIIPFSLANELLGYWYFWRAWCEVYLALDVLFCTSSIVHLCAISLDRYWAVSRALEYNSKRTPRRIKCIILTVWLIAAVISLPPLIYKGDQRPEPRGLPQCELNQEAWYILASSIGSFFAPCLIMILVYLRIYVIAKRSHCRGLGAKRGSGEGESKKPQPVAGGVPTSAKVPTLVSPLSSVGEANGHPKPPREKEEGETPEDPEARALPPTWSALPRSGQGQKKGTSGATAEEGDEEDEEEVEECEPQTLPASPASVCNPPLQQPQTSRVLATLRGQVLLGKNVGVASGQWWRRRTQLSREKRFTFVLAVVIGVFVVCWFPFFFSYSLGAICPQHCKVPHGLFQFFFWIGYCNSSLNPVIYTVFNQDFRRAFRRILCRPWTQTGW
T2 sequence (P22909 whole entry): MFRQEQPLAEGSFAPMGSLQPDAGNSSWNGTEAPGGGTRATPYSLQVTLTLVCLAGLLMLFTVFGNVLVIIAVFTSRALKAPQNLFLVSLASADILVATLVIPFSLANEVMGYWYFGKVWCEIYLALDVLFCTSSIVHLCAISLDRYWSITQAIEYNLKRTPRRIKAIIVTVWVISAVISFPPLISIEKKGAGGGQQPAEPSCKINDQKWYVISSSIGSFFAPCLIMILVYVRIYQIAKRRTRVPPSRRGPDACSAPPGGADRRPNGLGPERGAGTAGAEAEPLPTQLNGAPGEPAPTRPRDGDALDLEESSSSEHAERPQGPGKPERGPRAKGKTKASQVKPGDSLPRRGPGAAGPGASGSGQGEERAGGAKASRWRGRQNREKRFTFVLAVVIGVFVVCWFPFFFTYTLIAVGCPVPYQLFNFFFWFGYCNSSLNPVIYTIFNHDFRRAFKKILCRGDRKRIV
In words: Binding affinity towards rat Alpha-2 adrenergic receptor was evaluated using [3H]- yohimbine as radioligand. The assay is classed as protein assay.

Assay [4] addresses T3, Adrenergic receptor alpha-1 (Rattus norvegicus, UniProt P15823+P23944+P43140).
T3 sequence (P15823 whole entry): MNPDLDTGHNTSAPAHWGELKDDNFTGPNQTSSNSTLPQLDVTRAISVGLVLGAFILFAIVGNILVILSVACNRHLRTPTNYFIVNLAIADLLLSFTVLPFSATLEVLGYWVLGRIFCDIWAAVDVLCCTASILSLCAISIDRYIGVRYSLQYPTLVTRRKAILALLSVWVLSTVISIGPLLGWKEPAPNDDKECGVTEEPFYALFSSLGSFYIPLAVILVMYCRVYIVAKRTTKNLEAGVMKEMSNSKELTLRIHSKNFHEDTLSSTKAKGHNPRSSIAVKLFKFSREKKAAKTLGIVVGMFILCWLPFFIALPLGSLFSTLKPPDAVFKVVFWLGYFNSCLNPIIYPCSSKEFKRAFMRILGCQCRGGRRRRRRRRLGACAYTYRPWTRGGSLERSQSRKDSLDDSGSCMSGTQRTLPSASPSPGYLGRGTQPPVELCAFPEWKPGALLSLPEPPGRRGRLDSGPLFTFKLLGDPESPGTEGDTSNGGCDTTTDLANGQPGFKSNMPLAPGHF
T3 sequence (P23944 whole entry): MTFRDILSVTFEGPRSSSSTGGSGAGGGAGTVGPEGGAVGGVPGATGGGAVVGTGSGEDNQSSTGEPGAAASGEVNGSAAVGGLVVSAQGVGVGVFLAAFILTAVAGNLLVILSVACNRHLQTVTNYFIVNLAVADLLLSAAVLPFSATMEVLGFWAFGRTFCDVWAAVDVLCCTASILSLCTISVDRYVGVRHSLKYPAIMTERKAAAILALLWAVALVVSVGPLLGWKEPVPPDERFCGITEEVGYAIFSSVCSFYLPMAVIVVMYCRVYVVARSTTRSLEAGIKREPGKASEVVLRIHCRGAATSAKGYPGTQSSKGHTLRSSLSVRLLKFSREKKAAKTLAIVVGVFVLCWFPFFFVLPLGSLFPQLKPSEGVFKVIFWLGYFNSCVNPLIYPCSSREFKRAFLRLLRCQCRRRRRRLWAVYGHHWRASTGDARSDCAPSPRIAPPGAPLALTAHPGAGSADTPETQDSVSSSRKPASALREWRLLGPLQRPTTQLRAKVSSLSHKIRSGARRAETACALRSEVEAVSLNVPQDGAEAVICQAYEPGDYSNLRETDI
T3 sequence (P43140 whole entry): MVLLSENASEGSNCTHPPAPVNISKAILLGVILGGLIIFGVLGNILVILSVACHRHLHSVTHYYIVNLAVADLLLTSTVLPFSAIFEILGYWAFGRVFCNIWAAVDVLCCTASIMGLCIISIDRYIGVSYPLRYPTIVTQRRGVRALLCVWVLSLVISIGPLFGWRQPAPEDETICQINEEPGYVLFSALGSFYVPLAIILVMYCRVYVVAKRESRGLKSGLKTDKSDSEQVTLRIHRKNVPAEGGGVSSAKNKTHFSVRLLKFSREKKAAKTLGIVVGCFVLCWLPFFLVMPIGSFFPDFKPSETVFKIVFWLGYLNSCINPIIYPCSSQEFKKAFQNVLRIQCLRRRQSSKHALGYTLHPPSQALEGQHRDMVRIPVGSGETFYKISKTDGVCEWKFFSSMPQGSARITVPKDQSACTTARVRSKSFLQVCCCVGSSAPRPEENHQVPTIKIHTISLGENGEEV
In words: Binding affinity towards rat Alpha-1 adrenergic receptor was evaluated using [3H]- prazosin as radioligand. The assay is classed as protein assay.

The next assay addresses D(2) dopamine receptor (Rattus norvegicus, UniProt P61169). Description: Binding affinity towards rat Dopamine receptor D2 was evaluated using [3H]- spiroperidol as radioligand.
Assay [5] can be described thus: Selectivity ratio of IC50 values of 5-hydroxytryptamine 1A receptor vs dopamine receptor D2.
A short description of assay [6]: Selectivity ratio of IC50 values of 5-hydroxytryptamine 1A receptor vs Alpha-2 adrenergic receptor.
The nature of assay [7]: Selectivity ratio of IC50 values of 5-hydroxytryptamine 1A receptor vs 5-hydroxytryptamine 2 receptor.

D(2) dopamine receptor, sequence (P61169 whole entry): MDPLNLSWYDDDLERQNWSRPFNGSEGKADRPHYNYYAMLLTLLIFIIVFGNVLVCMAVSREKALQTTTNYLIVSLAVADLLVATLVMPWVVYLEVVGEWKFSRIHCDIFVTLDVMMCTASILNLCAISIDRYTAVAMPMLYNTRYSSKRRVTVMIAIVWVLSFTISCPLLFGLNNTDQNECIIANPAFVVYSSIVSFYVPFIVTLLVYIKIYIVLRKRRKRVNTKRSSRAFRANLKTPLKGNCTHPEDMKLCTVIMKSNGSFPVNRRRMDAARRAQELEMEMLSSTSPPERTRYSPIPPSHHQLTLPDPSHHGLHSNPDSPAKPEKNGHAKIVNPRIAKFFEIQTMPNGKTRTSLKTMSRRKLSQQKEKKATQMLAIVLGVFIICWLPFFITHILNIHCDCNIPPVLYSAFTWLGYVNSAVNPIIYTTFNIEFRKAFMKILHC
5-hydroxytryptamine receptor 2A, sequence (P14842 whole entry): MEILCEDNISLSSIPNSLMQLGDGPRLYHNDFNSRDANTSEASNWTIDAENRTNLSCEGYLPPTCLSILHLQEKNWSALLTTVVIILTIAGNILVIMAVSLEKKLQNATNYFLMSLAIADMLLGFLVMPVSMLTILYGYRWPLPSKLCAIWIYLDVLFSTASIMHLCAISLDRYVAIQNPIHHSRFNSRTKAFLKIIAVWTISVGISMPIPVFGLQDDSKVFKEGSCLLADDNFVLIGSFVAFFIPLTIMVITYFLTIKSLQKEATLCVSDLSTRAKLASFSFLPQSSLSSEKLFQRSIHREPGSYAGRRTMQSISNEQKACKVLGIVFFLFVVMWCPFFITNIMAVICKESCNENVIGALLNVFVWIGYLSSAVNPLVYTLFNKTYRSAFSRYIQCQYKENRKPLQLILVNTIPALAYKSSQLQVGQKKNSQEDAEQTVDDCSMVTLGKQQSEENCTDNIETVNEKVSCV

One may read the IC50 as the concentration needed to halve the response being measured. A low value points to inhibition by little substance. On to `COc1ccc2c(c1)CC(CCN1CCN(c3ccccc3)CC1)CC2` (stereo unspecified), for which the IC50 was determined as 0.0036 µM in assay [1]; 0.23 µM in assay [2]; 0.26 µM in assay [3]; 0.08 µM in assay [4]; 0.1 µM at D(2) dopamine receptor. Moreover, the Selectivity ratio in assay [5] worked out at 28; in assay [6], 72; in assay [7], 64.

With `COc1ccc2c(c1)CCC(CCN1CCN(c3ccccc3)CC1)C2` (stereo unspecified), the IC50 in assay [1] came to 0.0037 µM; in assay [2], 0.086 µM; in assay [3], 0.16 µM; in assay [4], 0.079 µM; at D(2) dopamine receptor, 0.12 µM. Moreover, the Selectivity ratio in assay [5] came out at 32; in assay [6], 43; in assay [7], 23.
